Several values for one entry are separate records, joined by “and”; a condition that tells them apart may be missing. Equal entries are not always repeated.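 96-well plates; 48 h exposure; 5 concentrations. Endpoints by linear interpolation between flanking doses. Not reached: highest tested concentration assigned. GI50 = concentration required for 50% inhibition of growth.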 Activity calls are given as the source filed them. Rule as the data show it: active = GI50 up to about 1.1 µM and inactive = higher.
Legend:
Experiment in all cases: growth of human tumour cells (NCI), 48 h
SNB-75 = system: SNB-75
786-0 = system: 786-0
A498 = system: A498
A549 = system: A549
ACHN = system: ACHN
CAKI-1 = system: CAKI-1
CCRF-CEM = system: CCRF-CEM
COLO 205 = system: COLO 205
DU-145 = system: DU-145
EKVX = system: EKVX
HCC 2998 = system: HCC 2998
HCT-116 = system: HCT-116
HCT-15 = system: HCT-15
HL-60 = system: HL-60
HOP-62 = system: HOP-62
HOP-92 = system: HOP-92
HT-29 = system: HT-29
Hs-578T = system: Hs-578T
IGROV-1 = system: IGROV-1
K562 = system: K562
KM12 = system: KM12
LOX IMVI = system: LOX IMVI
M14 = system: M14
MCF7 = system: MCF7
MDA-MB-231 = system: MDA-MB-231
MDA-MB-435 = system: MDA-MB-435
MDA-N = system: MDA-N
MOLT-4 = system: MOLT-4
Malme-3M = system: Malme-3M
NCI-H226 = system: NCI-H226
NCI-H23 = system: NCI-H23
NCI-H460 = system: NCI-H460
NCI-H522 = system: NCI-H522
NCI/ADR-RES = system: NCI/ADR-RES
OVCAR-3 = system: OVCAR-3
OVCAR-4 = system: OVCAR-4
OVCAR-5 = system: OVCAR-5
OVCAR-8 = system: OVCAR-8
PC-3 = system: PC-3
RPMI-8226 = system: RPMI-8226
RXF 393 = system: RXF 393
SF-268 = system: SF-268
SF-295 = system: SF-295
SF-539 = system: SF-539
SK-MEL-28 = system: SK-MEL-28
SK-MEL-5 = system: SK-MEL-5
SN12C = system: SN12C
SNB-19 = system: SNB-19
SR = system: SR
SW-620 = system: SW-620
T47D = system: T47D
TK-10 = system: TK-10
U-251 = system: U-251
UACC-257 = system: UACC-257
SK-OV-3 = system: SK-OV-3
UACC-62 = system: UACC-62
UO-31 = system: UO-31

**Q.** Which GI50 (SNB-75) does the source give for `COC12C=CC(CC1)C(C)(C)C2O` (centres undefined) here?
**A.** 87.5 µM (inactive) and 52.7 µM (inactive)

**Q.** Which GI50 (786-0) does the source give for `CC1CC(C)C(O)C(C2CC(CC(=O)NC3CCCCC3)CC(=O)O2)C1` (centres undefined) here?
**A.** > 100 µM (inactive)

**Q.** And the GI50 (A498)?
**A.** > 100 µM (inactive)

**Q.** What about the GI50 (A549) of the same compound?
**A.** > 100 µM (inactive)

**Q.** And the GI50 (ACHN)?
**A.** > 100 µM (inactive)

**Q.** And the GI50 (CAKI-1)?
**A.** > 100 µM (inactive)

**Q.** What about the GI50 (CCRF-CEM) of the same compound?
**A.** > 100 µM (inactive)

**Q.** What about the GI50 (COLO 205) of the same compound?
**A.** > 100 µM (inactive)

**Q.** What about the GI50 (DU-145) of the same compound?
**A.** > 100 µM (inactive)

**Q.** What about the GI50 (EKVX) of the same compound?
**A.** > 100 µM (inactive)

**Q.** And the GI50 (HCC 2998)?
**A.** > 100 µM (inactive)

**Q.** And the GI50 (HCT-116)?
**A.** > 100 µM (inactive)

**Q.** And the GI50 (HCT-15)?
**A.** > 100 µM

**Q.** And the GI50 (HL-60)?
**A.** > 100 µM (inactive)

**Q.** And the GI50 (HOP-62)?
**A.** > 100 µM (inactive)

**Q.** What about the GI50 (HOP-92) of the same compound?
**A.** > 100 µM (inactive)

**Q.** And the GI50 (HT-29)?
**A.** > 100 µM (inactive)

**Q.** What about the GI50 (Hs-578T) of the same compound?
**A.** > 100 µM (inactive)

**Q.** What about the GI50 (IGROV-1) of the same compound?
**A.** > 100 µM (inactive)

**Q.** What about the GI50 (K562) of the same compound?
**A.** > 100 µM (inactive)

**Q.** And the GI50 (KM12)?
**A.** > 100 µM (inactive)

**Q.** What about the GI50 (LOX IMVI) of the same compound?
**A.** > 100 µM (inactive)

**Q.** And the GI50 (M14)?
**A.** > 100 µM (inactive)

**Q.** And the GI50 (MCF7)?
**A.** > 100 µM (inactive)

**Q.** And the GI50 (MDA-MB-231)?
**A.** > 100 µM (inactive)

**Q.** What about the GI50 (MDA-MB-435) of the same compound?
**A.** > 100 µM (inactive)

**Q.** What about the GI50 (MDA-N) of the same compound?
**A.** > 100 µM (inactive)

**Q.** What about the GI50 (MOLT-4) of the same compound?
**A.** > 100 µM (inactive)

**Q.** What about the GI50 (Malme-3M) of the same compound?
**A.** > 100 µM (inactive)

**Q.** And the GI50 (NCI-H226)?
**A.** > 100 µM (inactive)

**Q.** And the GI50 (NCI-H23)?
**A.** > 100 µM (inactive)

**Q.** And the GI50 (NCI-H460)?
**A.** > 100 µM (inactive)

**Q.** And the GI50 (NCI-H522)?
**A.** > 100 µM (inactive)

**Q.** What about the GI50 (NCI/ADR-RES) of the same compound?
**A.** > 100 µM (inactive)

**Q.** What about the GI50 (OVCAR-3) of the same compound?
**A.** > 100 µM (inactive)

**Q.** And the GI50 (OVCAR-4)?
**A.** > 100 µM (inactive)

**Q.** What about the GI50 (OVCAR-5) of the same compound?
**A.** > 100 µM (inactive)

**Q.** And the GI50 (OVCAR-8)?
**A.** > 100 µM (inactive)

**Q.** And the GI50 (PC-3)?
**A.** > 100 µM (inactive)

**Q.** And the GI50 (RPMI-8226)?
**A.** > 100 µM (inactive)

**Q.** And the GI50 (RXF 393)?
**A.** > 100 µM (inactive)

**Q.** What about the GI50 (SF-268) of the same compound?
**A.** > 100 µM (inactive)

**Q.** And the GI50 (SF-295)?
**A.** > 100 µM (inactive)

**Q.** And the GI50 (SF-539)?
**A.** > 100 µM (inactive)

**Q.** What about the GI50 (SK-MEL-28) of the same compound?
**A.** > 100 µM (inactive)

**Q.** What about the GI50 (SK-MEL-5) of the same compound?
**A.** > 100 µM (inactive)

**Q.** And the GI50 (SN12C)?
**A.** 87.9 µM (inactive)

**Q.** What about the GI50 (SNB-19) of the same compound?
**A.** > 100 µM (inactive)

**Q.** And the GI50 (SNB-75)?
**A.** > 100 µM (inactive)

**Q.** What about the GI50 (SR) of the same compound?
**A.** > 100 µM (inactive)

**Q.** What about the GI50 (SW-620) of the same compound?
**A.** > 100 µM (inactive)

**Q.** And the GI50 (T47D)?
**A.** > 100 µM (inactive)

**Q.** What about the GI50 (TK-10) of the same compound?
**A.** > 100 µM (inactive)

**Q.** And the GI50 (U-251)?
**A.** > 100 µM (inactive)

**Q.** What about the GI50 (UACC-257) of the same compound?
**A.** > 100 µM (inactive)

**Q.** For `C(=N\c1ccc(-c2cc(-c3ccccc3)nc3ccc4ccccc4c23)cc1)/c1ccccc1`, which GI50 (786-0) is on record?
**A.** 19.5 µM (inactive)

**Q.** What about the GI50 (A498) of the same compound?
**A.** 26.7 µM (inactive)

**Q.** What about the GI50 (A549) of the same compound?
**A.** 13.6 µM (inactive)

**Q.** What about the GI50 (ACHN) of the same compound?
**A.** 34.6 µM (inactive)

**Q.** And the GI50 (CAKI-1)?
**A.** 23.3 µM (inactive)

**Q.** And the GI50 (CCRF-CEM)?
**A.** 16 µM (inactive)

**Q.** What about the GI50 (COLO 205) of the same compound?
**A.** 13.6 µM (inactive)

**Q.** And the GI50 (DU-145)?
**A.** 20.7 µM (inactive)

**Q.** And the GI50 (EKVX)?
**A.** 18.1 µM (inactive)

**Q.** What about the GI50 (HCC 2998) of the same compound?
**A.** 11.4 µM (inactive)

**Q.** What about the GI50 (HCT-116) of the same compound?
**A.** 16.6 µM (inactive)

**Q.** What about the GI50 (HCT-15) of the same compound?
**A.** 8.26 µM

**Q.** And the GI50 (HL-60)?
**A.** 9.48 µM (inactive)

**Q.** What about the GI50 (HOP-62) of the same compound?
**A.** 20.9 µM (inactive)

**Q.** What about the GI50 (HT-29) of the same compound?
**A.** 7.87 µM (inactive)

**Q.** And the GI50 (Hs-578T)?
**A.** 5.86 µM (inactive)

**Q.** What about the GI50 (IGROV-1) of the same compound?
**A.** 37.3 µM (inactive)

**Q.** What about the GI50 (K562) of the same compound?
**A.** 4.79 µM (inactive)

**Q.** What about the GI50 (KM12) of the same compound?
**A.** 10.8 µM (inactive)

**Q.** And the GI50 (LOX IMVI)?
**A.** 19.9 µM (inactive)

**Q.** What about the GI50 (M14) of the same compound?
**A.** 18.1 µM (inactive)

**Q.** And the GI50 (MCF7)?
**A.** 9.25 µM (inactive)

**Q.** And the GI50 (MDA-MB-231)?
**A.** 11.2 µM (inactive)

**Q.** What about the GI50 (MDA-MB-435) of the same compound?
**A.** 21.2 µM (inactive)

**Q.** And the GI50 (MDA-N)?
**A.** 24.4 µM (inactive)

**Q.** And the GI50 (MOLT-4)?
**A.** 18.6 µM (inactive)

**Q.** What about the GI50 (Malme-3M) of the same compound?
**A.** 30.5 µM (inactive)

**Q.** What about the GI50 (NCI-H226) of the same compound?
**A.** 22.3 µM (inactive)

**Q.** What about the GI50 (NCI-H23) of the same compound?
**A.** 27.6 µM (inactive)

**Q.** What about the GI50 (NCI-H460) of the same compound?
**A.** 19.9 µM (inactive)

**Q.** And the GI50 (NCI/ADR-RES)?
**A.** 28.5 µM (inactive)

**Q.** What about the GI50 (OVCAR-3) of the same compound?
**A.** 20.4 µM (inactive)

**Q.** What about the GI50 (OVCAR-4) of the same compound?
**A.** 2.39 µM (inactive)

**Q.** And the GI50 (OVCAR-5)?
**A.** 56.1 µM (inactive)

**Q.** And the GI50 (OVCAR-8)?
**A.** 26 µM (inactive)

**Q.** What about the GI50 (PC-3) of the same compound?
**A.** 13.2 µM (inactive)

**Q.** What about the GI50 (RPMI-8226) of the same compound?
**A.** 15.6 µM (inactive)

**Q.** And the GI50 (RXF 393)?
**A.** 9.68 µM (inactive)

**Q.** What about the GI50 (SF-268) of the same compound?
**A.** 7.48 µM (inactive)

**Q.** And the GI50 (SF-295)?
**A.** 10.9 µM (inactive)

**Q.** What about the GI50 (SF-539) of the same compound?
**A.** 16.5 µM (inactive)

**Q.** And the GI50 (SK-MEL-28)?
**A.** 14.1 µM (inactive)

**Q.** What about the GI50 (SK-MEL-5) of the same compound?
**A.** 17.4 µM (inactive)

**Q.** What about the GI50 (SK-OV-3) of the same compound?
**A.** 30.3 µM (inactive)

**Q.** What about the GI50 (SN12C) of the same compound?
**A.** 8.39 µM (inactive)

**Q.** What about the GI50 (SNB-19) of the same compound?
**A.** 18.5 µM (inactive)

**Q.** And the GI50 (SNB-75)?
**A.** 1.18 µM (inactive)

**Q.** What about the GI50 (SR) of the same compound?
**A.** 10.2 µM (inactive)

**Q.** What about the GI50 (SW-620) of the same compound?
**A.** 26.2 µM (inactive)

**Q.** And the GI50 (TK-10)?
**A.** 22.3 µM (inactive)

**Q.** And the GI50 (U-251)?
**A.** 36.5 µM (inactive)

**Q.** What about the GI50 (UACC-257) of the same compound?
**A.** 23.5 µM (inactive)

**Q.** What about the GI50 (UACC-62) of the same compound?
**A.** 20.8 µM (inactive)

**Q.** And the GI50 (UO-31)?
**A.** 15.9 µM (inactive)

— ChEMBL document CHEMBL1201862, “PubChem BioAssay data set” (2004)
